One assay concerns noradrenaline neurons. Description: Protection of noradrenaline neurons against DSP-4 induced neurotoxicity in the mouse brain. It is filed as in vivo. Conditions: Experiment I, pretreatment 10 mg/Kg i.p., mean ± S.E. Here is the method: The analyses of DSP-4-induced neurotoxic effects were conducted in accordance with […] and Jonsson (Eur. J. Pharmacol. 103 (1984), 269-278), hereby incorporated by reference. Mice were pretreated with M-2-PP (10 mg/Kg) and 2-HxMP (10 mg/Kg) or saline as control via i.p. administration and one hour later challenged with a single i.p. dose of DSP-4 (DSP-4: […] One week after treatment noradrenaline content in the putamen of these mice was analyzed. The results which are shown in Table 5 are mean ± S.E. of five animals in each group.

For a further assay, the target named is T1, MAO-A (Rattus norvegicus, UniProt P21396).
T1 sequence (P21396 1-526): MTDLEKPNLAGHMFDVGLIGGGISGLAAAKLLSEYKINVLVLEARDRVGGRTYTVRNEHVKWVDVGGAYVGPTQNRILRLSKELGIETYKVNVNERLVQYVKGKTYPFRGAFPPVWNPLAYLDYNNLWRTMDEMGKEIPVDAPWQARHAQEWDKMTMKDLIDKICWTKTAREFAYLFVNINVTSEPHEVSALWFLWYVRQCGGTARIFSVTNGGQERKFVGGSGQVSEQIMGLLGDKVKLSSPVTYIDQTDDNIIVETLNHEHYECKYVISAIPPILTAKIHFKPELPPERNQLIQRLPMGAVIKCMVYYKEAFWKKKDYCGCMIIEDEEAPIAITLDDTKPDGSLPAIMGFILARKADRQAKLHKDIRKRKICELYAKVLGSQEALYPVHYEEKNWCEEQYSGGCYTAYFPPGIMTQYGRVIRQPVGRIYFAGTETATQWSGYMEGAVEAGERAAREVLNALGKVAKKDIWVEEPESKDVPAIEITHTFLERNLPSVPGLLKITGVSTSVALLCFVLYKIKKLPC
Description: biochemical. It is filed as biochemical. Conditions: substrate 5-HT (5 × 10^-4 M); rat liver MAO, in vitro; average of at least 3 independent experiments. The protocol:
(§1) The aliphatic propargylamine inhibitors (from 1×10^-10 M to 1×10^-4 M) were preincubated with the MAO for 20 min. at ambient room temperature and then the residual enzyme activities were determined by addition of the substrates, followed by further incubation at 37° C. for 30 min. The enzymatic reactions were terminated by the addition of citric acid and the aldehyde products were extracted with toluene: ethyl acetate (1:1, v/v) and the radio-activities assessed in a scintillation counter.

Assay [1] has as its target T2, MAO-B (Rattus norvegicus, UniProt P19643).
T2 sequence (P19643 1-520): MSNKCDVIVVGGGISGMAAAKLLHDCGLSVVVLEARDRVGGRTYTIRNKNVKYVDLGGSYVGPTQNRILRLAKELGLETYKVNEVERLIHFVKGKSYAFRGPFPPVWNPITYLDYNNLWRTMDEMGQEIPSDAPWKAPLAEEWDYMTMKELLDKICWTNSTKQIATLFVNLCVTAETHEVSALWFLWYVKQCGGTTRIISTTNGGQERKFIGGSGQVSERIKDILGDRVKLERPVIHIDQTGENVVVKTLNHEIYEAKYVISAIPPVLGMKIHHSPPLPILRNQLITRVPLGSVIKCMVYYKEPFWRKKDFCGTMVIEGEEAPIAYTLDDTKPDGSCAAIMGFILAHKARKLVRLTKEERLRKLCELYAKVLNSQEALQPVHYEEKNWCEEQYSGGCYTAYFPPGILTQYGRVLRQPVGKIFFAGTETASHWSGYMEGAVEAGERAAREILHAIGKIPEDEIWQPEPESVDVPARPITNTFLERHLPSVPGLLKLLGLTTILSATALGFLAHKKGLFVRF
Description: biochemical. It is filed as biochemical. Here is the method: as §1

The target in assay [2] is T3, MAO-B (Mus musculus, UniProt Q8BW75).
T3 construct: MAO activities in the mouse brain after; from tissue
T3 sequence (Q8BW75 1-520): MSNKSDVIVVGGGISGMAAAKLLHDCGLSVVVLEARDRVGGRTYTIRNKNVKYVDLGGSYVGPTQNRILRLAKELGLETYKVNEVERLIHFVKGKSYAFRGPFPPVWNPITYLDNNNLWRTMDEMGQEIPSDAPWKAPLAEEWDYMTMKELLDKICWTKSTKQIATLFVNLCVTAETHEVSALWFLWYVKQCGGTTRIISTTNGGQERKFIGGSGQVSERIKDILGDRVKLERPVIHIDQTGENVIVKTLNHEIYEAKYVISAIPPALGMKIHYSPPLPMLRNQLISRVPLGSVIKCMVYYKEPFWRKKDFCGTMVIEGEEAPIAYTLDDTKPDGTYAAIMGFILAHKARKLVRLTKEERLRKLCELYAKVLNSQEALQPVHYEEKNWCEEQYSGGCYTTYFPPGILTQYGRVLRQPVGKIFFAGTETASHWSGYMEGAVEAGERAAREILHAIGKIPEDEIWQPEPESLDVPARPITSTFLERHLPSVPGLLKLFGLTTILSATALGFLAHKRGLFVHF
Description: in vivo. It is filed as in vivo. Particulars: mouse, ip. The protocol: Albino Swiss mice were used in this study. The animals were injected intraperitoneally with different doses of the aliphatic propargylamines in 100 μL saline.
0.5, 1, 2, 5, 10, 20, 50, 100 mg/Kg. Striata were dissected from the brai
two hours after i.p. administration of the drugs. MAOA and MAOB activitie
were determined immediately. The values were estimated from doseresponse

Another assay addresses monoamine oxidase. Description: Inhibition of rat liver monoamine oxidase deamination of dopamine (DA, mixed-type MAO A and B substrate) in vitro. It is filed as biochemical. Conditions: substrate DA (5 × 10^-4 M), average of at least 3 independent experiments.

The values that follow come from patent US5508311A, “Aliphatic propargylamines as selective MAO-B inhibitors and as neuroprotective agents” (University of Saskatchewan, priority 1993, dated 1996).

As usually defined, the IC50 is the concentration at which inhibition is half-maximal. `C#CCN(C)C(C)CCC.Cl.O=C(O)C(=O)O` (stereo not shown) [Example M-2-PP, N-(2-Pentyl)-N-methylpropargylamine hydrochloride and oxalate]: the Noradrenaline in putamen with noradrenaline neurons (DSP-4 50 mg/Kg, p < 0.01 vs DSP-4 (DSP-4 alone 33)) turned out to be 90 ± 0.07%; with noradrenaline neurons (saline, no DSP-4), 111 ± 0.09%. Further, the figures for the IC50 at MAO-A, on MAO-B [1] (read-out: PE IC50) and against monoamine oxidase were 10 µM, 0.2 µM and 6 µM, respectively. Further, the “Ratio MAO-A/MAO-B” value on MAO-B [1] (rat, liver mitochondrial membranes) came out at 50; on MAO-B [2] (in vivo, 120 min), 50. The “MAO-B ID50 (mg/Kg) / IC50 (1 × 10^-6 M)” value at MAO-B [2] (in vivo) was determined as 2.5. Further, the “inhibition of brain MAO-B activity in vivo (in words)” value at MAO-B [2] (in vivo) was “more potent than the longer chain analogs at inhibiting brain MAO-B activity”. On MAO-B [2] (2 h, read-out: PE ID50), the ED50 is 0.5 mg/kg.
